From patent US5288720A, “Angiotensin II receptor blocking 2,3,6 substituted quinazolinones” (American Cyanamid Company, priority 1993, dated 1994)

System: ANGIOTENSIN II VASOPRESSOR RESPONSE
Assay: AII Challenge: blockade of angiotensin II vasopressor response in conscious SHR
Type: in vivo, rat (Conscious Male Okamoto-Aoki SHR)
Settings: SHR n=2
In short: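 Conscious male Okamoto-Aoki SHR (16-20 weeks, ~330 g) cannulated in aorta and vena cava under local procaine; angiotensin II (human) 0.05 and 0.1 ug/kg i.v. given before and at 30-300 min after test compound i.v., i.p. or orally. Rise in systolic pressure (mmHg) expressed as % blockade versus each rat's predose response.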

[1] = 3 mg/kg i.v., AII 0.05 mcg/kg IV, 30 min post dose
[2] = 3 mg/kg i.v., AII 0.05 mcg/kg IV, 60 min post dose
[3] = 3 mg/kg i.v., AII 0.05 mcg/kg IV, 90 min post dose
[4] = 3 mg/kg i.v., AII 0.05 mcg/kg IV, 120 min post dose
[5] = 3 mg/kg i.v., AII 0.05 mcg/kg IV, 180 min post dose
[6] = 3 mg/kg i.v., AII 0.05 mcg/kg IV, 240 min post dose
[7] = 3 mg/kg i.v., AII 0.05 mcg/kg IV, 300 min post dose
[8] = 3 mg/kg i.v., AII 0.1 mcg/kg IV, 30 min post dose
[9] = 3 mg/kg i.v., AII 0.1 mcg/kg IV, 60 min post dose
[10] = 3 mg/kg i.v., AII 0.1 mcg/kg IV, 90 min post dose
[11] = 3 mg/kg i.v., AII 0.1 mcg/kg IV, 120 min post dose
[12] = 3 mg/kg i.v., AII 0.1 mcg/kg IV, 180 min post dose
[13] = 3 mg/kg i.v., AII 0.1 mcg/kg IV, 240 min post dose
[14] = 3 mg/kg i.v., AII 0.1 mcg/kg IV, 300 min post dose
[15] = 3 mg/kg p.o., AII 0.05 mcg/kg IV, 30 min post dose
[16] = 3 mg/kg p.o., AII 0.05 mcg/kg IV, 60 min post dose
[17] = 3 mg/kg p.o., AII 0.05 mcg/kg IV, 90 min post dose
[18] = 3 mg/kg p.o., AII 0.05 mcg/kg IV, 120 min post dose
[19] = 3 mg/kg p.o., AII 0.05 mcg/kg IV, 180 min post dose
[20] = 3 mg/kg p.o., AII 0.05 mcg/kg IV, 240 min post dose
[21] = 3 mg/kg p.o., AII 0.1 mcg/kg IV, 30 min post dose
[22] = 3 mg/kg p.o., AII 0.1 mcg/kg IV, 60 min post dose
[23] = 3 mg/kg p.o., AII 0.1 mcg/kg IV, 90 min post dose
[24] = 3 mg/kg p.o., AII 0.1 mcg/kg IV, 120 min post dose
[25] = 3 mg/kg p.o., AII 0.1 mcg/kg IV, 180 min post dose
[26] = 3 mg/kg p.o., AII 0.1 mcg/kg IV, 240 min post dose

Question: Which “% Inhibition of AII vasopressor response” value [1] does the source give for `CCCCc1nc2ccc(C(O)C3CCN(C)C3=O)cc2c(=O)n1Cc1ccc(-c2ccccc2-c2nn[nH]n2)cc1` (single isomer, unassigned; isomer 1) [Example 32, 2-Butyl-6-[hydroxy(1-methyl-2-oxo-3-pyrrolidinyl)methyl]-3-[[2'-(1e,uns/H/ -tetrazol-5-yl)[1,1'-biphenyl]-4-yl]methyl]-4(3H)-quinazolinone isomer 1] here?
Answer: 100%

Question: What about the “Average Change (systolic blood pressure response to AII)” value (shortened to “Average Change”) [1] of the same compound?
Answer: 0 mmHg

Question: What about the “% Inhibition of AII vasopressor response” value [2] of the same compound?
Answer: 89%

Question: And the “Average Change” value [2]?
Answer: 2.5 mmHg

Question: What about the “% Inhibition of AII vasopressor response” value [3] of the same compound?
Answer: 89%

Question: What about the “Average Change” value [3] of the same compound?
Answer: 2.5 mmHg

Question: And the “% Inhibition of AII vasopressor response” value [4]?
Answer: 89%

Question: And the “Average Change” value [4]?
Answer: 2.5 mmHg

Question: And the “% Inhibition of AII vasopressor response” value [5]?
Answer: 68%

Question: And the “Average Change” value [5]?
Answer: 7.5 mmHg

Question: And the “% Inhibition of AII vasopressor response” value [6]?
Answer: 26%

Question: What about the “Average Change” value [6] of the same compound?
Answer: 17.5 mmHg

Question: And the “% Inhibition of AII vasopressor response” value [7]?
Answer: -13%

Question: And the “Average Change” value [7]?
Answer: 26.5 mmHg

Question: What about the “% Inhibition of AII vasopressor response” value [8] of the same compound?
Answer: 100%

Question: And the “Average Change” value [8]?
Answer: 0 mmHg

Question: And the “% Inhibition of AII vasopressor response” value [9]?
Answer: 96%

Question: What about the “Average Change” value [9] of the same compound?
Answer: 1.5 mmHg

Question: And the “% Inhibition of AII vasopressor response” value [10]?
Answer: 88%

Question: And the “Average Change” value [10]?
Answer: 5 mmHg

Question: What about the “% Inhibition of AII vasopressor response” value [11] of the same compound?
Answer: 94%

Question: And the “Average Change” value [11]?
Answer: 2.5 mmHg

Question: And the “% Inhibition of AII vasopressor response” value [12]?
Answer: 53%

Question: What about the “Average Change” value [12] of the same compound?
Answer: 20 mmHg

Question: What about the “% Inhibition of AII vasopressor response” value [13] of the same compound?
Answer: 24%

Question: What about the “Average Change” value [13] of the same compound?
Answer: 32.5 mmHg

Question: What about the “% Inhibition of AII vasopressor response” value [14] of the same compound?
Answer: 0%

Question: And the “Average Change” value [14]?
Answer: 42.5 mmHg

Question: And the “% Inhibition of AII vasopressor response” value [15]?
Answer: 0%

Question: What about the “Average Change” value [15] of the same compound?
Answer: 32.5 mmHg

Question: And the “% Inhibition of AII vasopressor response” value [16]?
Answer: 46%

Question: What about the “Average Change” value [16] of the same compound?
Answer: 17.5 mmHg

Question: And the “% Inhibition of AII vasopressor response” value [17]?
Answer: 62%

Question: What about the “Average Change” value [17] of the same compound?
Answer: 12.5 mmHg

Question: And the “% Inhibition of AII vasopressor response” value [18]?
Answer: 46%

Question: What about the “Average Change” value [18] of the same compound?
Answer: 17.5 mmHg

Question: What about the “% Inhibition of AII vasopressor response” value [19] of the same compound?
Answer: 11%

Question: What about the “Average Change” value [19] of the same compound?
Answer: 29 mmHg

Question: What about the “% Inhibition of AII vasopressor response” value [20] of the same compound?
Answer: 31%

Question: What about the “Average Change” value [20] of the same compound?
Answer: 22.5 mmHg

Question: What about the “% Inhibition of AII vasopressor response” value [21] of the same compound?
Answer: 27%

Question: What about the “Average Change” value [21] of the same compound?
Answer: 27.5 mmHg

Question: And the “% Inhibition of AII vasopressor response” value [22]?
Answer: 27%

Question: What about the “Average Change” value [22] of the same compound?
Answer: 27.5 mmHg

Question: And the “% Inhibition of AII vasopressor response” value [23]?
Answer: 40%

Question: And the “Average Change” value [23]?
Answer: 22.5 mmHg

Question: And the “% Inhibition of AII vasopressor response” value [24]?
Answer: 28%

Question: What about the “Average Change” value [24] of the same compound?
Answer: 27 mmHg

Question: And the “% Inhibition of AII vasopressor response” value [25]?
Answer: 13%

Question: What about the “Average Change” value [25] of the same compound?
Answer: 32.5 mmHg

Question: What about the “% Inhibition of AII vasopressor response” value [26] of the same compound?
Answer: 23%

Question: What about the “Average Change” value [26] of the same compound?
Answer: 29 mmHg
